According to patent publication US20070142392A1, “Uses of rifamycins” (ActivBiotics, Inc., priority 2005, published 2007):
In brackets after ≈: the same amount, converted by molar mass.

Columns and labels:
Type in all cases: cell-based
E. faecalis = assay: MIC values, E. faecalis (Tables 1-4)
H. flu = test system: H. flu
S. pneumo. = assay: MIC values, S. pneumo. (Tables 1-4)
S. aureus = assay: MIC values, S. aureus (Tables 1-4)
E. coli = assay: MIC values, E. coli (Tables 1-4)

SMILES	MIC E. faecalis (E. faecalis) [µg/mL]	MIC H. flu (H. flu) [µg/mL]	MIC S. pneumo. (S. pneumo.) [µg/mL]	MIC S. aureus (S. aureus) [µg/mL]	MIC E. coli (E. coli) [µg/mL]
CO[C@H]1/C=C/O[C@@]2(C)Oc3c(C)c(O)c4c(=O)c(c5sc6cc(N7CCC(N(C)C)CC7)ccc6nc-5c4c3C2=O)NC(=O)/C(C)=C\C=C\[C@H](C)[C@H](O)[C@@H](C)[C@@H](O)[C@@H](C)[C@H](OC(C)=O)[C@@H]1C [Compound 69]	0.5 (≈ 0.539 µM)	0.5 (≈ 0.539 µM)	0.00025 (≈ 0.00027 µM)	0.015 (≈ 0.0162 µM)	4 (≈ 4.31 µM)
COC1C=COC2(C)Oc3c(C)c(O)c4c(=O)c(c5sc6cc(N7CC(C)N(CC8CC8)CC7C)ccc6nc-5c4c3C2=O)NC(=O)C(C)=CC=CC(C)C(O)C(C)C(O)C(C)C(O)C1C (stereo not shown) [Compound 70]	1 (≈ 1.08 µM)	1 (≈ 1.08 µM)	0.001 (≈ 0.00108 µM)	0.03 (≈ 0.0324 µM)	>8
CO[C@H]1/C=C/O[C@@]2(C)Oc3c(C)c(O)c4c(=O)c(c5oc6cc(N7CCC(C)(N(C)C)CC7)cc(O)c6nc-5c4c3C2=O)NC(=O)/C(C)=C\C=C\[C@H](C)[C@H](O)[C@@H](C)[C@@H](O)[C@@H](C)[C@H](OC(C)=O)[C@@H]1C [Compound 71]	0.25 (≈ 0.266 µM)	0.5 (≈ 0.531 µM)	0.00012 (≈ 0.000128 µM)	0.008 (≈ 0.0085 µM)	4 (≈ 4.25 µM)
CO[C@H]1/C=C/O[C@@]2(C)Oc3c(C)c(O)c4c(=O)c(c5oc6cc(N7CCC(C)(NC(C)=O)CC7)cc(O)c6nc-5c4c3C2=O)NC(=O)/C(C)=C\C=C\[C@H](C)[C@H](O)[C@@H](C)[C@@H](O)[C@@H](C)[C@H](OC(C)=O)[C@@H]1C [Compound 72]	2 (≈ 2.09 µM)	0.5 (≈ 0.524 µM)	0.00025 (≈ 0.000262 µM)	0.008 (≈ 0.00838 µM)	>8
CO[C@H]1/C=C/O[C@@]2(C)Oc3c(C)c(O)c4c(=O)c(c5oc6cc(N7CCC(C)(N(C)C)CC7)cc(O)c6nc-5c4c3C2=O)NC(=O)/C(C)=C\C=C\[C@H](C)[C@H](O)[C@@H](C)[C@@H](O)[C@@H](C)[C@H](O)[C@@H]1C [Compound 73]	0.03 (≈ 0.0334 µM)	0.12 (≈ 0.133 µM)	0.00025 (≈ 0.000278 µM)	0.002 (≈ 0.00222 µM)	2 (≈ 2.22 µM)
CO[C@H]1/C=C/O[C@@]2(C)Oc3c(C)c(O)c4c(=O)c(c5oc6cc(N7CCC(C)(NC(C)=O)CC7)cc(O)c6nc-5c4c3C2=O)NC(=O)/C(C)=C\C=C\[C@H](C)[C@H](O)[C@@H](C)[C@@H](O)[C@@H](C)[C@H](O)[C@@H]1C [Compound 74]	0.5 (≈ 0.548 µM)	0.12 (≈ 0.131 µM)	0.001 (≈ 0.0011 µM)	0.03 (≈ 0.0329 µM)	>8
CO[C@H]1/C=C/O[C@@]2(C)Oc3c(C)c(O)c4c(=O)c(c5oc6cc(N7CC[C@@H](N(C)C)C7)cc(O)c6nc-5c4c3C2=O)NC(=O)/C(C)=C\C=C\[C@H](C)[C@H](O)[C@@H](C)[C@@H](O)[C@@H](C)[C@H](OC(C)=O)[C@@H]1C [Compound 75]	0.12 (≈ 0.131 µM)	0.25 (≈ 0.274 µM)	0.00012 (≈ 0.000131 µM)	0.002 (≈ 0.00219 µM)	4 (≈ 4.38 µM)
COC1C=COC2(C)Oc3c(C)c(O)c4c(=O)c(c5sc6cc(N7CCN8CCCC8C7)ccc6nc-5c4c3C2=O)NC(=O)C(C)=CC=CC(C)C(O)C(C)C(O)C(C)C(OC(C)=O)C1C (stereo not shown) [Compound 76]	0.5 (≈ 0.54 µM)	0.25 (≈ 0.27 µM)	0.00025 (≈ 0.00027 µM)	0.008 (≈ 0.00865 µM)	4 (≈ 4.32 µM)
COC1C=COC2(C)Oc3c(C)c(O)c4c(=O)c(c5sc6cc(N7CCN8CCCC8C7)ccc6nc-5c4c3C2=O)NC(=O)C(C)=CC=CC(C)C(O)C(C)C(O)C(C)C(O)C1C (stereo not shown) [Compound 77]	0.25 (≈ 0.283 µM)	0.12 (≈ 0.136 µM)	0.00025 (≈ 0.000283 µM)	0.002 (≈ 0.00226 µM)	2 (≈ 2.26 µM)
COC1C=COC2(C)Oc3c(C)c(O)c4c(=O)c(c5oc6cc(N7CCN8CCCC8C7)cc(O)c6nc-5c4c3C2=O)NC(=O)C(C)=CC=CC(C)C(O)C(C)C(O)C(C)C(O)C1C (stereo not shown) [Compound 87]	0.03 (≈ 0.034 µM)	0.25 (≈ 0.283 µM)	0.00025 (≈ 0.000283 µM)	0.002 (≈ 0.00226 µM)	4 (≈ 4.53 µM)
COC1C=COC2(C)Oc3c(C)c(O)c4c(=O)c(c5oc6cc(N7CCN8CCCC8C7)cc(O)c6nc-5c4c3C2=O)NC(=O)C(C)=CC=CC(C)C(O)C(C)C(O)C(C)C(O)C1C (stereo not shown) [Compound 88]	0.03 (≈ 0.034 µM)	0.25 (≈ 0.283 µM)	0.00025 (≈ 0.000283 µM)	0.004 (≈ 0.00453 µM)	8 (≈ 9.06 µM)
CO[C@H]1/C=C/O[C@@]2(C)Oc3c(C)c(O)c4c(=O)c(c5oc6cc(N7CCN(Cc8ccccc8)CC7)cc(O)c6nc-5c4c3C2=O)NC(=O)/C(C)=C\C=C\[C@H](C)[C@H](O)[C@@H](C)[C@@H](O)[C@@H](C)[C@H](O)[C@@H]1C [Compound 89]	>8	8 (≈ 8.57 µM)	0.001 (≈ 0.00107 µM)	0.03 (≈ 0.0322 µM)	>8
CO[C@H]1/C=C/O[C@@]2(C)Oc3c(C)c(O)c4c(=O)c(c5oc6cc(N7C[C@@H](C)N[C@@H](C)C7)cc(O)c6nc-5c4c3C2=O)NC(=O)/C(C)=C\C=C\[C@H](C)[C@H](O)[C@@H](C)[C@@H](O)[C@@H](C)[C@H](O)[C@@H]1C [Compound 90]	0.06 (≈ 0.0689 µM)	0.25 (≈ 0.287 µM)	0.0005 (≈ 0.000574 µM)	0.008 (≈ 0.00918 µM)	4 (≈ 4.59 µM)
CC[C@@H]1CN(c2cc(O)c3nc4c5c6c7c(C)c(O)c5c(=O)c(c-4oc3c2)NC(=O)/C(C)=C\C=C\[C@H](C)[C@H](O)[C@@H](C)[C@@H](O)[C@@H](C)[C@H](O)[C@H](C)[C@@H](OC)/C=C/O[C@@](C)(O7)C6=O)C[C@H](CC)N1 [Compound 91]	0.12 (≈ 0.133 µM)	0.25 (≈ 0.278 µM)	0.0005 (≈ 0.000556 µM)	0.03 (≈ 0.0334 µM)	4 (≈ 4.45 µM)
